Like-named read-outs stand apart in the source and are kept apart here.
How the values were obtained:
[1] = target: T1, human recombinant acetylcholinesterase (hrAChE) (Homo sapiens, UniProt P22303); experiment: Cholinesterase inhibition assay (Ellman's method), hrAChE; format: biochemical; conditions: for IC50: Ellman's method, 25 °C, pH 7.4
T1 construct: purchased Sigma-Aldrich, St. Louis, MO, USA
Procedure: (§1) Cholinesterase activity was measured by Ellman’s method adapted for microtiter plates, as previously described by Ristovski et al.. A complex and its ligands were first screened for the IC50 determination and then the inhibitory constants (Ki) were determined. A stock solution of C1 (1 mg/mL) was prepared in 5% v/v DMSO in deionized water, while a stock solution of chlorido analogue C1′ (1 mg/mL) was prepared in 100% methanol (MeOH). […] These solutions were added to the wells, and gradually diluted in 100 mM of potassium phosphate buffer (pH 7.4) to the final volume of 50 µL. Acetylthiocholine chloride and 5,5′-dithiobis-2-nitrobenzoic acid were then dissolved in the same buffer to the respective final concentrations of 1 and 0.5 mM and added (100 μL) to the wells of the microtiter plates. C1 was screened against a suite of ChEs of human and animal origin (eeAChE, hrAChE, hsBChE) (all three from Sigma-Aldrich, St. Louis, MO, USA), hrBChE (gift from the research group of Professor Stanislav Gobec, Faculty of Pharmacy, University of Ljubljana), and csBChE. All enzymes were dissolved in the 100 mM potassium phosphate buffer (pH 7.4) to 0.0075 U/mL. Fifty μL of each ChE was added to start the reactions, which were followed spectrophotometrically at 405 nm and 25 °C for 5 min using a kinetic microplate reader (Dynex Technologies Inc., Chantilly, VA, USA). The blank reactions without the inhibitors were run with the appropriate dilutions of the solvents, in which the tested compound and positive control were initially diluted (5% aqueous DMSO or 100% MeOH), and the readings were corrected according to the appropriate blanks. […] Each measurement was repeated at least three times. Data were analyzed using OriginPro software (OriginPro 2020, OriginLab Corporation, Northampton, MA, USA).

[2] = target: canine serum butyrylcholinesterase (csBChE) (Canis lupus familiaris, UniProt A0A8I3PBA0); experiment: Cholinesterase inhibition assay (Ellman's method), csBChE; format: biochemical; conditions: for IC50: Ellman's method, 25 °C, pH 7.4
canine serum butyrylcholinesterase (csBChE), sequence (A0A8I3PBA0 29-602): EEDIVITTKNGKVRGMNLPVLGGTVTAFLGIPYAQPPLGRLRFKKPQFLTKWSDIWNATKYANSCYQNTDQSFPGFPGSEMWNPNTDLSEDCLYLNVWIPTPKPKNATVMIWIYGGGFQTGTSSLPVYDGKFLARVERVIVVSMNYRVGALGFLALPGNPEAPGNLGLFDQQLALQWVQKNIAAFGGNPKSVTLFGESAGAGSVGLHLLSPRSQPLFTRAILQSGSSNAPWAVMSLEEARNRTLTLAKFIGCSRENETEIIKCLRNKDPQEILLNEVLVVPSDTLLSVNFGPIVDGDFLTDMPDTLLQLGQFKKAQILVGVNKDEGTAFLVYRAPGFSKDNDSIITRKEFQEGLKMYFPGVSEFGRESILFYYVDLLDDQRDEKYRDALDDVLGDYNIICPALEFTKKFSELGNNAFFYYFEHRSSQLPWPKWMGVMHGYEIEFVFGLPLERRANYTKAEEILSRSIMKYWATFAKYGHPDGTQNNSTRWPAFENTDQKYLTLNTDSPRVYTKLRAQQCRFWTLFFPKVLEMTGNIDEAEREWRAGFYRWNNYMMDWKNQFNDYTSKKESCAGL
Procedure: as §1

[3] = target: T2, horse serum butyrylcholinesterase (hsBChE) (Equus caballus, UniProt P81908); experiment: Cholinesterase inhibition assay (Ellman's method), hsBChE; format: biochemical; conditions: for IC50: Ellman's method, 25 °C, pH 7.4
T2 construct: BChE derived from horse serum; purchased Sigma-Aldrich, St. Louis, MO, USA; host or cells: horse serum
T2 sequence (P81908 whole entry): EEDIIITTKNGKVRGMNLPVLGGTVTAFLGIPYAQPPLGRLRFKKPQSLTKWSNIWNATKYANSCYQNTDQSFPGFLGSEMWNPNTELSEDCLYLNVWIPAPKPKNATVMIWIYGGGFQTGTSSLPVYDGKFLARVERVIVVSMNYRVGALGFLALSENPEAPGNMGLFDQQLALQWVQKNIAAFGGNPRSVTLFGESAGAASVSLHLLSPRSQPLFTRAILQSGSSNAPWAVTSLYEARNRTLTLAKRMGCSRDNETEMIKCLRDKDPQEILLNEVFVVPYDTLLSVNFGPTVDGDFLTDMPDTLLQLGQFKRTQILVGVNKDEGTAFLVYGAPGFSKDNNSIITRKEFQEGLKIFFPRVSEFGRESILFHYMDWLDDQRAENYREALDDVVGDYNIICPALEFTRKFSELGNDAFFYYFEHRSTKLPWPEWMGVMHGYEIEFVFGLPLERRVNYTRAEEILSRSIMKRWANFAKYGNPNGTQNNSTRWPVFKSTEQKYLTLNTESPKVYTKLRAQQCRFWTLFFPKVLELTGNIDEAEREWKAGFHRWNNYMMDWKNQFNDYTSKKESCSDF
Procedure: as §1

[4] = target: T3, electric eel acetylcholinesterase (eeAChE) (Electrophorus electricus, UniProt O42275); experiment: Cholinesterase inhibition assay (Ellman's method), eeAChE; format: biochemical; conditions: for IC50: Ellman's method, 25 °C, pH 7.4
T3 construct: purchased Sigma-Aldrich, St. Louis, MO, USA
T3 sequence (O42275 24-633): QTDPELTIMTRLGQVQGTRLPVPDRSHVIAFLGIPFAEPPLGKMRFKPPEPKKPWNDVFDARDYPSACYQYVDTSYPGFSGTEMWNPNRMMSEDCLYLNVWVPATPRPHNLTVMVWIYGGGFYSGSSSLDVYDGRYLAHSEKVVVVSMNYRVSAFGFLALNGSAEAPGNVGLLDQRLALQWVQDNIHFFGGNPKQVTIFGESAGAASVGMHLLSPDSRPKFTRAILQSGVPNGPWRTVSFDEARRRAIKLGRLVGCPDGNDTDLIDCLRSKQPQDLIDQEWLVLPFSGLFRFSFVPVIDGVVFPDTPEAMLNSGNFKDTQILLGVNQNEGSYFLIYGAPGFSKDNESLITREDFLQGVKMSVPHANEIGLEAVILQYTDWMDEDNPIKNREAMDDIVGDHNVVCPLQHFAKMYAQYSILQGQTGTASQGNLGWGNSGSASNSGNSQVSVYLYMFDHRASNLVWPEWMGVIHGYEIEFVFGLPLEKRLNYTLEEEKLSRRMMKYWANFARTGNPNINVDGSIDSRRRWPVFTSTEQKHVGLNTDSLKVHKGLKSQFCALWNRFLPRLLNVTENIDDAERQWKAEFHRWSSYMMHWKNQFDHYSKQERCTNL
Procedure: as §1

[5] = target: T4, human recombinant butyrylcholinesterase (hrBChE) (Homo sapiens, UniProt P06276); experiment: Cholinesterase inhibition assay (Ellman's method), hrBChE; format: biochemical; conditions: for IC50: Ellman's method, 25 °C, pH 7.4
T4 construct: gift from the research group of Professor Stanislav Gobec, Faculty of Pharmacy, University of Ljubljana
T4 sequence (P06276 29-602): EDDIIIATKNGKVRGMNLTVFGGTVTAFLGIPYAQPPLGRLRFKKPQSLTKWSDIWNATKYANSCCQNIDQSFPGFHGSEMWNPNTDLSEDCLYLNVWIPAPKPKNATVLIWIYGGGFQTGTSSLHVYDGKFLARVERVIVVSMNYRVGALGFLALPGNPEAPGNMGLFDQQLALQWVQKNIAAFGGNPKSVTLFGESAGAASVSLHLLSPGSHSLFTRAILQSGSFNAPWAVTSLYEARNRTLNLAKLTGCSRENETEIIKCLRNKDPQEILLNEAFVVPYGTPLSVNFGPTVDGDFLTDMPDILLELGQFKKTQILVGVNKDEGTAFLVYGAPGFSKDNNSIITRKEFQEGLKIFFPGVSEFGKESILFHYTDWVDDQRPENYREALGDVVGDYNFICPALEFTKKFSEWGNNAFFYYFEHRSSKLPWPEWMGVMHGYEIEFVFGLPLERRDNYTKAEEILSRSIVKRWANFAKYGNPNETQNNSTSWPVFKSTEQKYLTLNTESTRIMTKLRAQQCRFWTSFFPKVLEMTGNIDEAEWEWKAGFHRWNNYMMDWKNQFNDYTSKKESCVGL
Procedure: as §1

[6] = target: T1, human recombinant acetylcholinesterase (hrAChE); conditions: previously reported; ref Ristovski et al. [9]; cited from earlier work
[7] = target: T3, electric eel acetylcholinesterase (eeAChE); conditions: previously reported; ref Ristovski et al. [9]; cited from earlier work
[8] = target: T2, horse serum butyrylcholinesterase (hsBChE); conditions: previously reported; ref Ristovski et al. [9]; cited from earlier work
[9] = test system: isolated mouse nerve-hemidiaphragm preparation; experiment: Muscle contraction recordings on isolated hemidiaphragm
Procedure: (§2) Mice were sacrificed by cervical dislocation and immediate exsanguination. After dissection of the diaphragm muscle with both phrenic nerves, the diaphragm muscle was cut into two hemidiaphragms. Each hemidiaphragm was maintained in oxygenated standard Krebs-Ringer solution (154 mM NaCl, 5 mM KCl, 2 mM CaCl2, 1 mM MgCl2, 5 mM HEPES, and 11 mM D-glucose; pH 7.4). Just prior to experiments, C1 was dissolved in a solution of 2.5% DMSO in deionized water at a stock concentration of 2 mg/mL. The final concentration of DMSO in the organ bath was always 0.104% v/v. All experiments were performed at room temperature (22–24 °C).
The hemidiaphragm with phrenic nerve was pinned on its lateral side into a silicon-coated organ bath containing oxygenated Krebs-Ringer (K-R) solution. Then, the tendon part was linked to the lever of an isometric mechano-electrical transducer (Grass Instruments, West Warwick, RI, USA) via a stainless-steel hook and silk thread. The equal stimulus protocol, equipment, and software were used as previously described by Ristovski et al.. The concentrations of C1 studied were 30, 60, 90, and 120 μM and their effect on muscle contraction was continuously measured during 60 min after application. The muscle twitch and tetanic contraction blockade produced by C1 was shown as the percentage of the initial maximal response.

[10] = test system: AChE in mouse diaphragm muscle; conditions: 3 µM; cited from earlier work
[11] = target: T2, horse serum butyrylcholinesterase (hsBChE); experiment: Cholinesterase inhibition assay (Ellman's method), hsBChE; format: biochemical; conditions: substrate acetylthiocholine 0.125, 0.25, 0.5 mM
[12] = test system: mouse hemidiaphragm muscle fibers; conditions: 120 µM; for resting membrane potential (rVm), median: end-plate regions of surface fibers
Procedure: as §2
Electrophysiological recordings on hemidiaphragm muscle fibers were performed using conventional microelectrode techniques. For measurements of rVm, EPP, and MEPP, hemidiaphragm preparations were immersed in oxygenated K-R solution containing 1.6 μM of μ-conotoxin GIIIB (Bachem, Bubendorf, Switzerland) and incubated for 30 min. The same stimulus protocol, equipment, and software were used to perform membrane potential recordings, as previously described by Ristovski et al.. Only the highest concentration of C1 (120 μM) was studied. The recordings were performed before applying C1, 30 and 60 min after the compound application, and 15 min after the compound wash-out. MEPP and EPP amplitudes were normalized to a rVm of −70 mV using the formula: Vc = Vo (−70)/rVm, where Vc is the normalized amplitude of MEPPs and EPPs, and Vo is their recorded amplitude.

T1 sequence (P22303 32-614): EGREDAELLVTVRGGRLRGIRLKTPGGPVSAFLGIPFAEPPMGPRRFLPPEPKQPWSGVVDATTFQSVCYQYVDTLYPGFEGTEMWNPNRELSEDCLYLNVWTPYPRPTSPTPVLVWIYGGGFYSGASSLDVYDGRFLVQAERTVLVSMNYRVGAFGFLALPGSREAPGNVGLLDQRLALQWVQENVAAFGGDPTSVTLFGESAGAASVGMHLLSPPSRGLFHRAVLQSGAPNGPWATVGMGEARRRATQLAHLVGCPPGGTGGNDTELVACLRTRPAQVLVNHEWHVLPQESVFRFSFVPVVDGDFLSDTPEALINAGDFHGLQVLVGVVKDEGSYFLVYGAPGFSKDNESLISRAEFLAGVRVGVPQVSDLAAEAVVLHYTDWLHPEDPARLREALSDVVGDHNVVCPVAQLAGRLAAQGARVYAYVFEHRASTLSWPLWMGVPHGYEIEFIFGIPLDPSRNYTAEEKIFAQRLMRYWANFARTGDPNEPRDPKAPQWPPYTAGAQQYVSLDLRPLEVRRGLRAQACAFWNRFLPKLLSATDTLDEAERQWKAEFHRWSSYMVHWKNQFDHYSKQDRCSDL

Compound	inhibition of hrAChE (in words) [1]	IC50 [1] [µM]	inhibition of csBChE (in words) [2]	IC50 [2] [µM]	inhibition of hsBChE (in words) [3]	IC50 [3] [nM]	inhibition of eeAChE (in words) [4]	IC50 [4] [µM]	inhibition of hrBChE (in words) [5]	IC50 [5] [µM]	Ki [11] [nM]	type of inhibition of hsBChE [3]	also measured
COc1cccn(O)c1=S [Compound L1, 1-hydroxy-3-methoxypyridine-2(1H)-thion]	did not inhibit	> 180	did not inhibit	> 180	did not inhibit	> 180000	did not inhibit	> 180	did not inhibit	> 180	–	–	–
Cc1ccc(C(C)C)cc1.Cc1ccc(C(C)C)cc1.[Cl][Ru][Cl].[Cl][Ru][Cl] [Compound P1, dichloro(p-cymene)ruthenium(II) dimer]	–	–	–	–	–	–	–	–	–	–	–	–	IC50 [6]: > 180 µM; IC50 [7]: > 180 µM; IC50 [8]: 32.7 µM; Ki [8]: 23.3 µM
CN(C)C(=O)Oc1cccc([N+](C)(C)C)c1 [Neostigmine, neostigmine methyl sulphate, reference compound]	–	–	–	28.4	–	62800	–	3.9	–	174	–	–	effect on nerve-evoked single-muscle and tetanic contraction ([9]; 3 µM, positive control): a slight increase in the amplitude of the nerve-evoked single-muscle contraction and a tetanic fade; inhibition of AChE in mouse diaphragm muscle [10]: 96%
[(η^6-p-Cymene)Ru(II)(1-hydroxy-3-methoxypyridine-2(1H)-thionato)Cl] [C1′]	low micromolar range	5.04	low micromolar range	2.27	low micromolar range	2340	low micromolar range	7.5	low micromolar range	1.29	3400	reversible competitive type	type of inhibition of hrAChE [1]: reversible competitive type; Ki ([1]; substrate 0.125, 0.25, 0.5 mM): 5.35 µM; type of inhibition of csBChE [2]: reversible competitive type; Ki ([2]; substrate 0.125, 0.25, 0.5 mM): 3000 nM; type of inhibition of eeAChE [4]: reversible competitive type; Ki ([4]; substrate 0.125, 0.25, 0.5 mM): 4.8 µM; type of inhibition of hrBChE [5]: reversible competitive type; Ki ([5]; substrate 0.125, 0.25, 0.5 mM): 1250 nM
[(η^6-p-Cymene)Ru(II)(1-hydroxy-3-methoxypyridine-2(1H)-thionato)pta]PF6 [Compound C1]	did not inhibit	> 180	–	> 180	selectively inhibited	2880	did not inhibit	> 180	–	144	1330	reversible competitive type	resting membrane potential (rVm), median ([12]; 30 min after exposure): −66.13 mV; resting membrane potential (rVm), median ([12]; 60 min after exposure): −66.63 mV; effect on resting membrane potential (rVm) ([12]; after 30 and 60 min of exposure): no effect; MEPPs frequency ([12]; within 60 min): without reducing; amplitudes of EPPs ([12]; within 60 min): did not affect; amplitudes of MEPPs ([12]; within 60 min): significantly decreased; half-decay time of EPPs ([12]; within 60 min of exposure): shortened; half-decay time of MEPPs ([12]; within 60 min of exposure): shortened; inhibition of csBChE (in words) ([2]; concentrations (0–180 µM) tested): did not inhibit; nerve-evoked single-twitch and tetanic contractions ([9]; 120 µM, 60 min exposure): not statistically significant increases; effect on maximal amplitude of nerve-evoked and directly elicited single-twitch and tetanic contractions ([9]; 30, 60, 90 and 120 µM, 60 min exposure): no significant effect; resting muscle tension ([9]; 30-120 µM, an increase would indicate a myotoxic effect): did not detect an increase; inhibition of hrBChE lower compared to hsBChE ([5]; ratio of IC50 hrBChE versus hsBChE): about 50 times
